# From patent US7955808B2, “Bitter taste receptors” (Deutsches Institut für Ernährungsorschung, Stiftung des …, priority 2002, dated 2011)
# Assays:
# [1] = biological target: T1, hTAS2R16 (Homo sapiens, UniProt Q9NYV7, R222H); test: FLIPR calcium assay, hTAS2R16-expressing HEK293/15 transfectants; assay type: cell-based
# T1 construct: gene-specific primers that span the complete coding region of the individual hTAS2R genes; first 45 amino acids of rat somatostatin type 3 receptor (cell surface-targeting signal) (N); expressed in transfected cells; host or cells: HEK293/15 cells (HEK293 stably expressing Galpha15), transient transfection
# T1 sequence (Q9NYV7 1-291 R222H): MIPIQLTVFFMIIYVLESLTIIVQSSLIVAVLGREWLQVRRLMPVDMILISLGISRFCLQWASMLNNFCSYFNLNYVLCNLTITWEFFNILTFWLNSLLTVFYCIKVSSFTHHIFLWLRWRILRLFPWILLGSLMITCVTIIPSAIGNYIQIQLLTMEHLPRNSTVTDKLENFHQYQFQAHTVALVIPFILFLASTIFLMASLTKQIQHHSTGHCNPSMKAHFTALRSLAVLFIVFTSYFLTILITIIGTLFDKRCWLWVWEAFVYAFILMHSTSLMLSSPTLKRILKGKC
# Method: A fluorescence imaging plate reader (FLIPR, Molecular Devices) was used to functionally screen cell populations transiently transfected with expression vectors encoding the above-described 24 bitter receptors and to establish concentration-response curves for hTAS2R16 and hTASR10. […] For the FLIPR experiments the HEK293/15 cells were grown to 50% confluence. […] After 48 h the cells in each well were transfected using Lipofectamine 2000 and 24-30 h later were loaded with FIuo4AM (Molecular Probes). Thereafter they were stimulated with bitter compounds (SigmaAldrich, further purified by reversed-phase HPLC to >99% purity). Calcium signals were recorded simultaneously from each well at 1 Hz at 510 nm after excitation at 488 nm and the recordings were corrected for cell density. […] The calculations rest on at least four independent transfection experiments.
# EC50 and threshold values obtained with hTAS2R16-expressing transfectants are shown in Table 1 below and the results are described in Example 4.
# [2] = biological target: T1, hTAS2R16; test: FLIPR assay, heterologous expression of hTAS2R16; assay type: cell-based; details: hTAS2R16; for EC50: read-out: EC50
# Description: (§1) Transient transfection of TAS2Rs into HEK-293T-Gα16gustducin44 cells.
# [3] = test system: human panelists; test: Human taste adaptation experiment; assay type: in vivo; details: for initial bitterness score by test panel: 8 mM, 15 s; for bitterness after prolonged stimulation with phenyl-beta-D-glucopyranoside (cross-adaptation): in vivo
# Method: To investigate adaptation, the 8 panelists first maintained aqueous solutions (5 ml) of phenyl-β-D-glucopyranoside (8 mM), phenyl-alpha-D-glucopyranoside (180 mM), salicin (8 mM), or helicin (8 mM) for 15 s in their oral cavities and evaluated the bitter intensity as described above. After 30 min, they kept a denatonium benzoate solution (5 ml, 0.0003 mM) for 15 s in their mouth and evaluated its bitterness. The panelists spat off the denatonium benzoate solution, took up the phenyl-β-D-glucopyranoside or the phenyl-alpha-D-glucopyranoside solutions orally for 120 s or 180 s and judged their bitterness intensity after 15, 30, 60, 120 and 180s. Thereafter, the panelists spat off these solutions and then sequentially took up salicin, helicin (5 ml, 8 mM) and denatonium benzoate (5 ml, 0.0003 mM) and evaluated bitterness intensities of these solutions after 15 s. After an additional 30 min, the first experiment was repeated. The data of three different sessions for each panelist were averaged. Intensity values between individuals and separate sessions differed by not more than ±0.5 units.
# [4] = test system: human panelists; test: Human taste experiments: bitter thresholds and dose-response by sensory panel; assay type: in vivo; details: for Threshold Value Human: bitter threshold, triangle test, tap water; for EC50: bitterness intensity dose-response
# Method: 15 experienced panelists in a sensory panel room at 22-25° C. determined bitter thresholds on three different sessions using a triangle test with tap water as solvent, according to methodology set out in J. Agric. Food Chem., 49, 231-238 (2001), or Mailgaard M et al, “Sensory Evaluation Techniques” (CRC Press LLC, New York 1999). For dose-response relations, bitter tastant concentration series were presented to 10 trained panelists in random order. The panelists ranked the samples in increasing order of intensity and, for each concentration, evaluated bitterness intensity on a scale from 0 to 5 (ref. 24). The dose-response curves of three different sessions were averaged. The intensity values between individuals and separate sessions differed by not more than 0.5 units.
# [5] = biological target: T1, hTAS2R16; test: Single-cell Ca2+ imaging, hTAS2R16-transfected HEK293/15 cells (selectivity, cross-desensitization); assay type: cell-based
# Method: A fluorescence imaging plate reader (FLIPR, Molecular Devices) was used to functionally screen cell populations transiently transfected with expression vectors encoding the above-described 24 bitter receptors and to establish concentration-response curves for hTAS2R16 and hTASR10. […] For the FLIPR experiments the HEK293/15 cells were grown to 50% confluence. […] After 48 h the cells in each well were transfected using Lipofectamine 2000 and 24-30 h later were loaded with FIuo4AM (Molecular Probes). Thereafter they were stimulated with bitter compounds (SigmaAldrich, further purified by reversed-phase HPLC to >99% purity). Calcium signals were recorded simultaneously from each well at 1 Hz at 510 nm after excitation at 488 nm and the recordings were corrected for cell density. […]
# Single-cell Ca^2+ imaging was performed with the hTAS2R16-transfected HEK293/15 cells as described in Cell 95, 917-926 (1998), but with the following modifications: The Till Photonics imaging system (Munich, Germany) was used in which a monochromator is connected by a quartz fiber lightguide and an epifluorescence condenser to an inverted Olympus IX50 microscope equipped with a UApo/340 40×1.35 oil-immersion lens. […] The 5 s interval camera pictures of all cells in the microscope field of vision permanently were stored and analyzed offline. […]
# [6] = biological target: T2, hTAS2R10 (Homo sapiens, UniProt Q9NYW0, T156M); test: FLIPR calcium assay, hTAS2R10-expressing HEK293/15 transfectants; assay type: cell-based
# T2 construct: gene-specific primers that span the complete coding region of the individual hTAS2R genes; first 45 amino acids of rat somatostatin type 3 receptor (cell surface-targeting signal) (N); expressed in transfected cells; host or cells: HEK-293T-Gα16gustducin44 cells (alternatively HEK-293 co-transfected with phospholipase-Cβ2 and α-gustducin)
# T2 sequence (Q9NYW0 1-307 T156M): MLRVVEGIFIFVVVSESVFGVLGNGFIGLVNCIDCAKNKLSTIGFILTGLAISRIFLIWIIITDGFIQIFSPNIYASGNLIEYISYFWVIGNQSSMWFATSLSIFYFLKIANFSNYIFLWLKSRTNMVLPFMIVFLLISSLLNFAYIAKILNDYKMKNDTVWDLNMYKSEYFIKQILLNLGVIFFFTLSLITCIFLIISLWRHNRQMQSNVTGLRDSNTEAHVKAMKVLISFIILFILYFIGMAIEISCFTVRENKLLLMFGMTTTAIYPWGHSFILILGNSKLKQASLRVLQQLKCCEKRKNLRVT
# Method: A fluorescence imaging plate reader (FLIPR, Molecular Devices) was used to functionally screen cell populations transiently transfected with expression vectors encoding the above-described 24 bitter receptors and to establish concentration-response curves for hTAS2R16 and hTASR10. […] For the FLIPR experiments the HEK293/15 cells were grown to 50% confluence. The cells were then seeded at a density of 3×10^3 cells per well into 96-well black-wall, clear-bottom microtiter plates (Greiner). After 48 h the cells in each well were transfected using Lipofectamine 2000 and 24-30 h later were loaded with FIuo4AM (Molecular Probes). […] The responses of five wells containing cells expressing the same receptor and that received the same stimulus (i.e., the same compound at the same concentration) were averaged. Calcium traces were subtracted that were determined in triplicate of mock-transfected cells stimulated with the same concentration of tastant. The calculations rest on at least four independent transfection experiments.
# [7] = biological target: T2, hTAS2R10; test: FLIPR assay, heterologous expression of hTAS2R10; assay type: cell-based
# Description: as §1
# [8] = biological target: T3, hTAS2R14 (Homo sapiens, UniProt Q9NYV8); test: FLIPR assay, heterologous expression of hTAS2R14; assay type: cell-based
# T3 construct: gene-specific primers that span the complete coding region of the individual hTAS2R genes; first 45 amino acids of rat somatostatin type 3 receptor (cell surface-targeting signal) (N); expressed in transfected cells; host or cells: HEK-293T-Gα16gustducin44 cells (alternatively HEK-293 co-transfected with phospholipase-Cβ2 and α-gustducin)
# T3 sequence (Q9NYV8 1-317): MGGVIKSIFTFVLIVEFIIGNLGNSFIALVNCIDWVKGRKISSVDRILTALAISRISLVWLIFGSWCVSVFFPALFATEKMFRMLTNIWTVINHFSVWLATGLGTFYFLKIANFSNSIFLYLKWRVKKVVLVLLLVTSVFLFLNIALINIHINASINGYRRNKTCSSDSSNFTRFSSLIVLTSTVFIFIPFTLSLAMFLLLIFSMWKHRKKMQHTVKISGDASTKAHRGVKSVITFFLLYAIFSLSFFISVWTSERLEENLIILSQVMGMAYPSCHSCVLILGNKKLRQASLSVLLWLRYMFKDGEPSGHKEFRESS
# Description: as §1
# [9] = biological target: T4, hT2R4 receptor (Homo sapiens, UniProt Q9NYW5); details: concentrations needed two orders of magnitude above human taste thresholds; cited from earlier work
# T4 sequence (Q9NYW5 1-299): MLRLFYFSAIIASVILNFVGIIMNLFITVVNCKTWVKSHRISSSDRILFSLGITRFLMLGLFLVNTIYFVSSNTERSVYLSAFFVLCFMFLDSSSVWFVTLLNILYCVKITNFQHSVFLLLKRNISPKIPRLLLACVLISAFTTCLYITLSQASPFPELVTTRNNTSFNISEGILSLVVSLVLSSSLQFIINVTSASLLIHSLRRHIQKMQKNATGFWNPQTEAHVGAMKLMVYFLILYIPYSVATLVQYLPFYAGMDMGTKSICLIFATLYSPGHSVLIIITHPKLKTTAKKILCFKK
compound,measurement,setting,value
"O=Cc1ccccc1O[C@@H]1O[C@H](CO)[C@@H](O)[C@H](O)[C@H]1O [Compound 3, helicin]",EC50,[1],2.3 mM
same,Threshold Value FLIPR,[1],0.3 ± 0.1 mM
same,Threshold,[2],0.3 ± 0.1 mM
same,EC50,[2],2.3 ± 0.4 mM
same,initial bitterness score by test panel,[3],equally intensely bitter
same,bitterness after prolonged stimulation with phenyl-beta-D-glucopyranoside (cross-adaptation),[3],less bitter
same,Threshold Value Human,[4],0.4 ± 0.1 mM
same,EC50,[4],2.2 mM
"OCc1ccccc1O[C@@H]1O[C@H](CO)[C@@H](O)[C@H](O)[C@H]1O [Compound 2, salicin]",EC50,[1],1.4 mM
same,Threshold Value FLIPR,[1],0.07 ± 0.02 mM
same,response after repeated stimulation with phenyl-beta-D-glucopyranoside (cross-desensitization),[5]; hTAS2R16-expressing cells,largely diminished responses
same,Threshold,[2],0.07 ± 0.02 mM
same,EC50,[2],1.4 ± 0.2 mM
same,initial bitterness score by test panel,[3],equally intensely bitter
same,bitterness after prolonged stimulation with phenyl-beta-D-glucopyranoside (cross-adaptation),[3],less bitter
same,Threshold Value Human,[4],0.2 ± 0.1 mM
same,EC50,[4],1.1 mM
O=C1C[C@@H]2OCC=C3CN4CC[C@]56c7ccccc7N1[C@H]5[C@H]2[C@H]3C[C@H]46 [Strychnine],EC50,[6],0.005 to 0.02 mM
same,threshold of activation,[6]; hTAS2R10 transfectants,approximately 0.1 μM
same,EC50,[7],0.04 mM
same,Approx. Threshold,[7]; hTAS2R10,0.003 mM
same,receptor activation (in words),[7]; hTAS2R10,activated
N[C@@H](Cc1c[nH]c2ccccc12)C(=O)O [tryptophan],receptor activation (in words),[8],activated
N[C@@H](Cc1ccccc1)C(=O)O [phenylalanine],receptor activation (in words),[8],activated
"OC[C@H]1O[C@@H](Oc2ccccc2)[C@H](O)[C@@H](O)[C@@H]1O [Compound 1, phenyl-beta-D-glucopyranoside]",EC50,[1],1.1 mM
same,Threshold Value FLIPR,[1],0.07 ± 0.02 mM
same,Threshold,[2],0.07 ± 0.02 mM
same,EC50,[2],1.1 ± 0.1 mM
same,initial bitterness score by test panel,[3],equally intensely bitter
same,own bitterness during prolonged stimulation (adaptation),[3]; 120 s or 180 s in the mouth,declined
same,Threshold Value Human,[4],0.1 ± 0.05 mM
same,EC50,[4],0.7 mM
CC[N+](CC)(CC(=O)Nc1c(C)cccc1C)Cc1ccccc1 [denatonium],in vitro response of the receptor,[9],provided a response
CC[N+](CC)(CC(=O)Nc1c(C)cccc1C)Cc1ccccc1.O=C([O-])c1ccccc1 [Denatonium benzoate],Approx. Threshold,[7]; hTAS2R10,0.003 mM
same,receptor activation (in words),[7]; hTAS2R10,activated
same,EC50,"[7]; hTAS2R10, read-out: EC50",0.07 mM
same,activation of TAS2R16,[5],cannot activate
same,bitterness after prolonged stimulation with phenyl-beta-D-glucopyranoside (cross-adaptation),[3],not
N[C@@H](Cc1ccc(O)cc1)C(=O)O [L-Tyrosine],reacts at,[8],1 mM
same,receptor activation (in words),[8],activated
N[C@@H](Cc1c[nH]cn1)C(=O)O [histidine],receptor activation (in words),[8],activated
CC(C)C[C@H](N)C(=O)O [leucine],receptor activation (in words),[8],activated
